Laboratory results taken from patent US20220306659A1, “COMPOUND INHIBITING AND INDUCING DEGRADATION OF EGFR AND ALK” (BEIJING TIDE PHARMACEUTICAL CO., LTD., priority 2019, published 2022).

Tests used:
EGFR^L858R/T790M/C797S = EGFR^L858R/T790M/C797S (Homo sapiens, UniProt P00533, C797S/L858R/T790M); assay: EGFR inhibitory activity assay (TK-substrate-biotin/ATP, 665/615 ratio); type: biochemical; conditions: kinase inhibition
Method: EGFR Inhibitory Activity Assay
(1) A compound stock solution was prepared and diluted 3× to obtain a compound dilution; 10 nL of the compound dilution was transferred to a 384-well plate (784075, Greiner) by Echo 550;
(2) The plate was sealed, and centrifuged at 1,000 g for 1 min;
(4) 5 μl of the 2×EGFR protein working solution was added to the 384-well plate from step (2), centrifuged at 1,000 g for 30 s, and allowed to stand at room temperature (mixed thoroughly) for 10 min;
(6) 5 µL of the TK-substrate-biotin and ATP (the mixture prepared in step (5)) was added to the 384-well plate from step (4) to initiate the reaction;
(7) The mixture was centrifuged at 1,000 g for 30 s; the plate was sealed, and allowed to stand (and reacted) at room temperature for 40 min;
(8) 4×Sa-XL 665 and TK-antibody-Cryptate were prepared with detection buffer;
(9) 5 µL of the Sa-XL 665 and 5 µL of the TK-antibody-Cryptate were added successively to the 384-well plate from step (7);
(10) The mixture was centrifuged at 1,000 g for 30 s, and allowed to stand (reacted) at room temperature for 1 h;
(11) The fluorescence values were read at 615 nm and 665 nm by enzyme labeling instrument (PerkinElmer, 74785).
The ratio (665/615) of each well was calculated.
(§1) Formula of inhibition rate (%): […]
Ratiocmpd: Ratio (665/615) value of assay compound.
Ratiopositive: Average ratio (665/615) value of positive control.
Ratiovehicle: Average ratio (665/615) value of negative control.
(§2) The nonlinear regression curve (dose response-variable slope) between the value of inhibition rate (%) and the logarithm of compound concentration was fitted with graphpad prism 8.0, the effect dose curve of compound was drawn, and the IC50 value was calculated.

ALK = ALK (Homo sapiens, UniProt Q9UM73); assay: Assay of activity on ALK kinase; type: biochemical; conditions: kinase inhibition
Method: (§3) Assay of activity on ALK kinase
(§4) (1) A compound stock solution was prepared;
(§5) (2) The compound stock solution was diluted 3× to obtain a compound dilution;
(§6) (5) 5 μl of the 2× kinase working solution was added to the reaction plate, centrifuged at 1,000 rpm for 1 min, and incubated at 25° C. for 15 min;
(§7) (7) 5 μl of the TK-substrate-biotin and ATP (the mixture prepared in step (6)) was added to initiate the reaction;
(§8) (8) The mixture was centrifuged at 1,000 g for 30 s; the plate was sealed, and incubated at 25° C. for 60 min;
(§9) (11) The mixture was centrifuged at 1,000 g for 1 min, and incubated at 25° C. for 60 min;
as §1, §2
(§10) Y=Bottom+(Top−Bottom)/(1+10^((LogIC50−X)*Hill Slope))
(§11) X-axis: logarithm of compound concentration; Y axis: inhibition rate ([…])

[1] = biological target: Ba/F3(EGFR^L858R/T790M/C797S) cells (Homo sapiens, UniProt P00533, T790M/C797S/L858R, cells depend on it); assay: Assay of activity on Ba/F3 cells (CTG, 72 h); type: cell-based; conditions: read-out: IC50 (nM) Ba/F3 (EGFR^L858R/T790M/C797S)
Ba/F3(EGFR^L858R/T790M/C797S) cells, sequence (P00533 whole entry T790M/C797S/L858R): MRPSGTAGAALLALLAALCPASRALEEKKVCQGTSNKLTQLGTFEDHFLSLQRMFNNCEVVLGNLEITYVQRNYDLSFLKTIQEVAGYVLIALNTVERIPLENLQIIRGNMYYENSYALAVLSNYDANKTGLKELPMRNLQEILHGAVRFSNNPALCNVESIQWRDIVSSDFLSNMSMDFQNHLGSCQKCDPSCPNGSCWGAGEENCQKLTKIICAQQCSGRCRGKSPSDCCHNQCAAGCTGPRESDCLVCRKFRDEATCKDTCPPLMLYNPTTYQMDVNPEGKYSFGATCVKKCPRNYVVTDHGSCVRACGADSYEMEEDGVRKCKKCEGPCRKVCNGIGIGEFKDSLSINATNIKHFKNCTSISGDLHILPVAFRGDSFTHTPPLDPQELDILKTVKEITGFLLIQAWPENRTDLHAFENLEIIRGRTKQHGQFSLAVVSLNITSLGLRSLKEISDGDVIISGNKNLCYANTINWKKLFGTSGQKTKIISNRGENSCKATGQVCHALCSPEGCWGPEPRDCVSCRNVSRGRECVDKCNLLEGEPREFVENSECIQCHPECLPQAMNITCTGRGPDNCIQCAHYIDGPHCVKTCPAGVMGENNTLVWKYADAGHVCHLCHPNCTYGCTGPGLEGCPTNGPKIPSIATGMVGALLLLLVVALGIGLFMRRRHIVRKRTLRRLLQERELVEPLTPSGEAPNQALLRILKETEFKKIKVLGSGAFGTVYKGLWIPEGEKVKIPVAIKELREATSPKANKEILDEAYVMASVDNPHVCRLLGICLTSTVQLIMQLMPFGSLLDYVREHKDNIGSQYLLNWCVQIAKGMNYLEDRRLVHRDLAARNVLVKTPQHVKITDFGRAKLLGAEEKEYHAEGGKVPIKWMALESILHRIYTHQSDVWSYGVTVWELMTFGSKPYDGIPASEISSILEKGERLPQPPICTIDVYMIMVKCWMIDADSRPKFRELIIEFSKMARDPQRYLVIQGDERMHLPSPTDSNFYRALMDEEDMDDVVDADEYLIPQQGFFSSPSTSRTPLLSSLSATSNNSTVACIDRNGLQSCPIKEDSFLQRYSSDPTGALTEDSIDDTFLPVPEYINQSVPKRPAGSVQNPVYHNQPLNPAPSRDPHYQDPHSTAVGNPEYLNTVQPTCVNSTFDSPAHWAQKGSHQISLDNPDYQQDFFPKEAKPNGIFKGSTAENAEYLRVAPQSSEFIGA
How it was run: (§12)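 Ba/F3 cells dependent on each EGFR triple mutant were exposed to 3-fold compound dilutions for 72 h at 37° C, 5% CO2, with CellTiter-Glo luminescence as the read-out.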

Ba/F3(EML4-ALK) cells = biological target: T1, Ba/F3(EML4-ALK) cells (Homo sapiens, UniProt Q9UM73); assay: Assay of activity on Ba/F3(EML4-ALK) cells (CTG, 72 h); type: cell-based; conditions: read-out: IC50 (nM) Ba/F3(EML4-ALK)
T1 construct: fused on or other part: Q9HC35 (Echinoderm microtubule-associated protein-like 4)
T1 sequence (Q9UM73 whole entry, change not shown, the tested form may be a part): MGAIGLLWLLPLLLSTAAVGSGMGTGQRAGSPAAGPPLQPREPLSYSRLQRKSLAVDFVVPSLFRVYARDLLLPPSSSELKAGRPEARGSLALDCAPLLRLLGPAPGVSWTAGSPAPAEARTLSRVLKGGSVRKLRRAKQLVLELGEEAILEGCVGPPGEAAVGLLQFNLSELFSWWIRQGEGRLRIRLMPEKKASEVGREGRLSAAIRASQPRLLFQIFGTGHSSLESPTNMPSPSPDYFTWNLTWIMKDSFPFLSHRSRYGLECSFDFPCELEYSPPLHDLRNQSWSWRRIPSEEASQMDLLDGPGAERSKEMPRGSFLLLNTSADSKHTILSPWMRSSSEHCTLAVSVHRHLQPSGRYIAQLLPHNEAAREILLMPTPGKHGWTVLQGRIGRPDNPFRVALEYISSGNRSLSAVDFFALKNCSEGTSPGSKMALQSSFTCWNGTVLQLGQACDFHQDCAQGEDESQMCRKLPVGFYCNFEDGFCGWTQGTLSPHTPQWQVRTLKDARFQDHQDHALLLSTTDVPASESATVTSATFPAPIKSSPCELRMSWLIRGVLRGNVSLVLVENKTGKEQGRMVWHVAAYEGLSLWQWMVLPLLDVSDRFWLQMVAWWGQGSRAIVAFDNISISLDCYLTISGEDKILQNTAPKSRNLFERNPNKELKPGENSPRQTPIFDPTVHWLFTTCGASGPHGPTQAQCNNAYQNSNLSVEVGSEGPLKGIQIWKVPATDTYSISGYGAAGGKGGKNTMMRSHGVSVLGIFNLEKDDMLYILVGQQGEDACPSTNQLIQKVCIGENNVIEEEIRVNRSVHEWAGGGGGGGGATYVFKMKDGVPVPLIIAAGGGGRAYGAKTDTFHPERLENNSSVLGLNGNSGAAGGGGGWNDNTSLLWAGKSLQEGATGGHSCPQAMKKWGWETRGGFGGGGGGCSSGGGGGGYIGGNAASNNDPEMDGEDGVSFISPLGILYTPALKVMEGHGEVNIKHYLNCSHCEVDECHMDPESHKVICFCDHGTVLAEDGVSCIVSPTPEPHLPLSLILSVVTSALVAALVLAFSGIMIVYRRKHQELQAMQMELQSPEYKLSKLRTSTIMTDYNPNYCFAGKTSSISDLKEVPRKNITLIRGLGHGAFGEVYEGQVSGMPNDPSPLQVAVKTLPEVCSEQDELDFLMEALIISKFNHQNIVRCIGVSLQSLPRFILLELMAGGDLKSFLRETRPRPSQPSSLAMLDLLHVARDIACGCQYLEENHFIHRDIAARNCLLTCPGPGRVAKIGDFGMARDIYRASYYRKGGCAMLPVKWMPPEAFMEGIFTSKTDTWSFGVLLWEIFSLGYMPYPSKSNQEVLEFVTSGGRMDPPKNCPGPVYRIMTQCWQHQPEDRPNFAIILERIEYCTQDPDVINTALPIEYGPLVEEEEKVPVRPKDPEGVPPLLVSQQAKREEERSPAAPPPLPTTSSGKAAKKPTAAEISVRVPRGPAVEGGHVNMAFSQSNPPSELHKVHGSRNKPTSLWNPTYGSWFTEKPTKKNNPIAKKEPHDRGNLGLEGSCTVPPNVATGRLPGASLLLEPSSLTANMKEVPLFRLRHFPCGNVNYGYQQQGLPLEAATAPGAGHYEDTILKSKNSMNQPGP
Method: Assay of activity on Ba/F3(EML4-ALK) cells
(1) Ba/F3(EML4-ALK) cells were cultured according to the requirements of ATCC, incubated in an incubator at 37° C. and 5% CO2, and analyzed by index; cells with viability of >90% can be used in the assay, and cells were seeded in a 384-well plate (PerkinElmer, 6007680) with 700 cells/well, 30 μl/well.
(2) A compound stock solution was prepared, and diluted 3× to obtain a compound dilution; 30 nL of the serial dilution was added to a 384-well plate (784075, Greiner) by Echo 550, and cells were incubated in an incubator at 37° C. and 5% CO2 for 72 h.
(3) 30 μL of CTG was added to each well, and the 384-well plate was shaken on a Plate shaker (QILINBEIER, QB-9002); the 384-well plate was incubated in the dark at 37° C. and 5% CO2 for 30 min, and the chemiluminescence value was read by Envision (PerkinElmer, EnVision 2104).
The percent inhibition rate (% inhibition) was calculated by the formula below
LUMcmpd: Luminescence value of assay compound.
LUMpositive: Average LUM value of positive drug at a concentration of 10 μM.
LUM^vehicle: Average LUM value of negative control group without drug treatment.
as §2
Y=Bottom+(Top−Bottom)/(1+10^((LogIC50−X)*HillSlope))
X-axis: logarithm of compound concentration; Y axis: inhibition rate (% inhibition).

ALK^G1202R = ALK^G1202R (Homo sapiens, UniProt Q9UM73, G1202R); assay: Assay of activity on ALK kinase; type: biochemical; conditions: kinase inhibition
Method: as §3, §4, §5, §6, §7, §8, §9, §1, §2, §10, §11

[2] = biological target: Ba/F3(EGFR^Del19/T790M/C797S) cells (Homo sapiens, UniProt P00533, DEL746-750/T790M/C797S, cells depend on it); assay: Assay of activity on Ba/F3 cells (CTG, 72 h); type: cell-based; conditions: read-out: IC50 (nM) Ba/F3 (EGFR^Del19/T790M/C797S)
How it was run: as §12

EGFR^L858R/T790M/C797S, sequence (P00533 25-1210 T790M/C797S/L858R): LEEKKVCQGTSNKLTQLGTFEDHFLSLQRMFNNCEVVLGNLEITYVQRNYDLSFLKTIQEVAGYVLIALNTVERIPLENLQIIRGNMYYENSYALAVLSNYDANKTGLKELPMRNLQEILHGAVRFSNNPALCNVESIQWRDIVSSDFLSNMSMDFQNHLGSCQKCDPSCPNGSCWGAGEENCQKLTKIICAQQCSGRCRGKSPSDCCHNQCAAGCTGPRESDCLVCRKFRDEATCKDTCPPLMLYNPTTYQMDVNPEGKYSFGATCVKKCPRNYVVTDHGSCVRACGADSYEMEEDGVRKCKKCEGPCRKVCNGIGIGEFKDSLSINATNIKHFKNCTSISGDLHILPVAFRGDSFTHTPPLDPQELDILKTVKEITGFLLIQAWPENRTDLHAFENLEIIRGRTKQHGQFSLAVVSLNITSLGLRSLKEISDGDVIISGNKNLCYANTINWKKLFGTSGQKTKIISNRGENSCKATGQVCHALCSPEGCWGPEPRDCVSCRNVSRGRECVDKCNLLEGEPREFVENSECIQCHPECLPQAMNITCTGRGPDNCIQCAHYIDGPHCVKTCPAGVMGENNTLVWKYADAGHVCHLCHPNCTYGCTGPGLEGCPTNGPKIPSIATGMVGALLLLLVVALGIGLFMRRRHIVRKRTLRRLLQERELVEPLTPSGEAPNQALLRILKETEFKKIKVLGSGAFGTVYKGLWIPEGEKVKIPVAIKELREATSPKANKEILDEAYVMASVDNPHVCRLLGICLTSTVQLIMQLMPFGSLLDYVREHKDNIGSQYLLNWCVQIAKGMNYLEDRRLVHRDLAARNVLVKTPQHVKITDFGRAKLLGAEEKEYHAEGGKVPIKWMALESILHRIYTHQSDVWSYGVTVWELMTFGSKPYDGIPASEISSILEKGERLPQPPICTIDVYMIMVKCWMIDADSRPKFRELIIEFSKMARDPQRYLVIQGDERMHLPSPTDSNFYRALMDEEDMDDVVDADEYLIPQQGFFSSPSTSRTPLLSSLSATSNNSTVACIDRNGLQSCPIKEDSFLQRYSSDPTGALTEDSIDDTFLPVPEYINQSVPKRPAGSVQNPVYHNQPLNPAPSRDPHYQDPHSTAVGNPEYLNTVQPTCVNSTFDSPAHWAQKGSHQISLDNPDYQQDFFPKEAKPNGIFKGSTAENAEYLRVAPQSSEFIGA

IC50 (EGFR^L858R/T790M/C797S) [nM] | IC50 (ALK) [nM] | GI50 [1] [nM] | GI50 (Ba/F3(EML4-ALK) cells) [nM] | IC50 (ALK^G1202R) [nM] | GI50 [2] [nM] | Structure (SMILES)
1 to 100 |  |  | 1 to 100 |  | 1 to 100 | [2H]C([2H])(CCCCCCOc1cccc2c1C(=O)N(C1CCC(=O)NC1=O)C2=O)N1CCN(C2CCN(c3ccc(Nc4ncc(Cl)c(Nc5ccccc5P(C)(C)=O)n4)c(OC)c3)CC2)CC1 (stereo not shown) [Compound C164, 4-((7-(4-(1-(4-((5-chloro-4-((2-(dimethylphosphoryl)phenyl)amino)pyrimidin-2-yl)amino)-3-methoxyphenyl)piperidin-4-yl)piperazin-1-yl)heptyl-7,7-dideuterium)oxy)-2-(2,6-dioxopiperidin-3-yl)isoindoline-1,3-dione]
 |  | 1 to 100 | 1 to 100 |  | 1 to 100 | COc1cc(N2CCC(N3CCN(CCCCCCCC#Cc4cccc5c4CN(C4CCC(=O)NC4=O)C5=O)CC3)CC2)c(C)cc1Nc1ncc(Br)c(Nc2ccc3nccnc3c2P(C)(C)=O)n1 (stereo not shown) [Compound C183, 3-(4-(9-(4-(1-(4-((5-bromo-4-((5-(dimethylphosphoryl)quinoxalin-6-yl)amino)pyrimidin-2-yl)amino)-5-methoxy-2-methylphenyl)piperidin-4-yl)piperazin-1-yl)non-1-yn-1-yl)-1-oxoisoindolin-2-yl)piperidine-2,6-dione]
 |  | 1 to 100 | 1 to 100 |  | 1 to 100 | COc1cc(N2CCC(N3CCN(CCCCCCCOc4cccc5c4CN(C4CCC(=O)NC4=O)C5=O)CC3)CC2)c(C)cc1Nc1ncc(Br)c(Nc2ccc3nccnc3c2P(C)(C)=O)n1 (stereo not shown) [Compound C214, 3-(4-((7-(4-(1-(4-((5-bromo-4-((5-(dimethylphosphoryl)quinoxalin-6-yl)amino)pyrimidin-2-yl)amino)-5-methoxy-2-methylphenyl)piperidin-4-yl)piperazin-1-yl)heptyl)oxy)-1-oxoisoindolin-2-yl)piperidine-2,6-dione]

Continued, compound first:

Structure (SMILES) | IC50 (EGFR^L858R/T790M/C797S) [nM] | IC50 (ALK) [nM] | GI50 [1] [nM] | GI50 (Ba/F3(EML4-ALK) cells) [nM] | IC50 (ALK^G1202R) [nM] | GI50 [2] [nM]
COc1cc(N2CCC(N3CCN(CCCCCC#Cc4cccc5c4CN(C4CCC(=O)NC4=O)C5=O)CC3)CC2)ccc1Nc1ncc(Cl)c(Nc2ccccc2P(C)(C)=O)n1 (stereo not shown) [Compound C1, 3-(4-(7-(4-(1-(4-((5-chloro-4-((2-(dimethylphosphoryl)phenyl)amino)pyrimidin-2-yl)amino)-3-methoxyphenyl)piperidin-4-yl)piperazin-1-yl)hept-1-yn-1-yl)-1-oxoisoindolin-2-yl)piperidine-2,6-dione] | 1 to 100 | 1 to 100 | 1 to 100 | 1 to 100 |  | 
COc1cc(N2CCC(N3CCN(CC(=O)N4CCC(CCOc5cccc6c5C(=O)N(C5CCC(=O)NC5=O)C6=O)CC4)CC3)CC2)ccc1Nc1ncc(Cl)c(Nc2ccccc2P(C)(C)=O)n1 (stereo not shown) [Compound C4, 4-(2-(1-(2-(4-(1-(4-((5-chloro-4-((2-(dimethylphosphoryl)phenyl)amino)pyrimidin-2-yl)amino)-3-methoxyphenyl)piperidin-4-yl)piperazin-1-yl)acetyl)piperidin-4-yl)ethoxy)-2-(2,6-dioxopiperidin-3-yl)isoindoline-1,3-dione] | 101 to 200 | 1 to 100 | 101 to 200 |  | 101 to 200 | 
COc1cc(N2CCC(N3CCN(C(=O)C(C)(C)COC(=O)COc4cccc5c4C(=O)N(C4CCC(=O)NC4=O)C5=O)CC3)CC2)ccc1Nc1ncc(Cl)c(Nc2ccccc2P(C)(C)=O)n1 (stereo not shown) [Compound C6, 2-((2-(2,6-dioxopiperidin-3-yl)-1,3-dioxoisoindolin-4-yl)oxy)acetic acid 3-(4-(1-(4-((5-Chloro-4-((2-(dimethylphosphoryl)phenyl)amino)pyrimidin-2-yl)amino)-3-methoxyphenyl)piperidin-4-yl)piperazin-1-yl)-2,2-dimethyl-3-oxopropyl ester] | 101 to 200 | 1 to 100 | 201 to 300 |  | 1 to 100 | 
COc1cc(N2CCC3(CCN(CCCCCCCOc4cccc5c4C(=O)N(C4CCC(=O)NC4=O)C5=O)CC3)CC2)c(C)cc1Nc1ncc(Br)c(Nc2ccc3nccnc3c2P(C)(C)=O)n1 (stereo not shown) [Compound C47, 4-((7-(9-(4-((5-bromo-4-((5-(dimethylphosphoryl)quinoxalin-6-yl)amino)pyrimidin-2-yl)amino)-5-methoxy-2-methylphenyl)-3,9-diazaspiro[5.5]undecan-3-yl)heptyl)oxy)-2-(2,6-dioxopiperidin-3-yl)isoindoline-1,3-dione] |  |  | 101 to 200 | 101 to 200 |  | 101 to 200
COc1cc(N2CCC(N3CCN(CC(=O)N4CC(Oc5cccc6c5C(=O)N(C5CCC(=O)NC5=O)C6=O)C4)CC3)CC2)ccc1Nc1ncc(Cl)c(Nc2ccccc2P(C)(C)=O)n1 (stereo not shown) [Compound C93, 4-((1-(2-(4-(1-(4-((5-chloro-4-((2-(dimethylphosphoryl)phenyl)amino)pyrimidin-2-yl)amino)-3-methoxyphenyl)piperidin-4-yl)piperazin-1-yl)acetyl)azetidin-3-yl)oxy)-2-(2,6-dioxopiperidin-3-yl)isoindoline-1,3-dione] | 1 to 100 | 1 to 100 | > 300 |  | 1 to 100 | 
COc1cc(N2CCC(N3CCN(C(=O)CC4(CSCC(=O)Nc5cccc6c5C(=O)N(C5CCC(=O)NC5=O)C6=O)CC4)CC3)CC2)ccc1Nc1ncc(Cl)c(Nc2ccccc2P(C)(C)=O)n1 (stereo not shown) [Compound C103, 2-(((1-(2-(4-(1-(4-((5-chloro-4-((2-(dimethylphosphoryl)phenyl)amino)pyrimidin-2-yl)amino)-3-methoxyphenyl)piperidin-4-yl)piperazin-1-yl)-2-oxoethyl)cyclopropyl)methyl)thio)—N-(2-(2,6-dioxopiperidin-3-yl)-1,3-dioxoisoindolin-4-yl)acetamide] | 201 to 300 | 1 to 100 |  |  | > 300 | 
COc1cc(N2CCC(N3CCN(CCCCCCCOc4cccc5c4C(=O)N(C4CCC(=O)NC4=O)C5=O)CC3)CC2)c(C)cc1Nc1ncc(Br)c(Nc2ccc3nccnc3c2P(C)(C)=O)n1 (stereo not shown) [Compound C158, 4-((7-(4-(1-(4-((5-bromo-4-((5-(dimethylphosphoryl)quinoxalin-6-yl)amino)pyrimidin-2-yl)amino)-5-methoxy-2-methylphenyl)piperidin-4-yl)piperazin-1-yl)heptyl)oxy)-2-(2,6-dioxopiperidin-3-yl)isoindoline-1,3-dione] |  |  | 101 to 200 | 201 to 300 |  | 1 to 100
